# Like-named read-outs stand apart in the source and are kept apart here.
# Tests used:
# Type in all cases: in vivo
# Spodoptera littoralis = Spodoptera littoralis (Egyptian cotton leafworm) cotton leaf disc spray test; conditions: for pest or weed control at 200 ppm: foliar, 72 h, read-out: control of Spodoptera littoralis; for damage to the test organisms: same protocol, 200 ppm
# Text: Spodoptera littoralis (Egyptian Cotton Leafworm):
# Cotton leaf discs were placed on agar in a 24-well microtiter plate and sprayed with test solutions at an application rate of 200 ppm. After drying, the leaf discs were infested with 5 L1 larvae. The samples were checked for mortality, feeding behavior, and growth regulation 3 days after treatment (DAT).
# Diabrotica balteata = Diabrotica balteata (corn root worm) larval test on artificial diet; conditions: same protocol, 200 ppm
# Description: Diabrotica balteata (Corn Root Worm):
# (§1) A 24-well microtiter plate (MTP) with artificial diet was treated with test solutions at an application rate of 200 ppm (concentration in well 18 ppm) by pipetting. After drying, the MTP's were infested with L2 larvae (6-10 per well). After an incubation period of 5 days, samples were checked for larval mortality and growth regulation.
# Plutella xylostella = Plutella xylostella (diamond back moth) larval test on artificial diet; conditions: same protocol, 200 ppm
# Description: Plutella xylostella (Diamond Back Moth):
# as §1, with “24-well” for “A 24-well”, “(7-12” for “(6-10”, “6” for “5”
# Heliothis virescens = Heliothis virescens (tobacco budworm) egg test on artificial diet; conditions: same protocol, 200 ppm
# Description: Heliothis virescens (Tobacco Budworm):
# Eggs (0-24 h old) were placed in 24-well microtiter plate on artificial diet and treated with test solutions at an application rate of 200 ppm (concentration in well 18 ppm) by pipetting. After an incubation period of 4 days, samples were checked for egg mortality, larval mortality, and growth regulation.
# Thrips tabaci = Thrips tabaci (onion thrips) sunflower leaf disc spray test; conditions: same protocol, 200 ppm
# Description: Thrips tabaci (Onion Trips):
# Sunflower leaf discs were placed on agar in a 24-well microtiter plate and sprayed with test solutions at an application rate of 200 ppm. After drying, the leaf discs were infested with an […] population of mixed ages. After an incubation period of 7 days, samples were checked for mortality.
# Tetranychus urticae = Tetranychus urticae (two-spotted spider mite) bean leaf disc spray test; conditions: same protocol, 200 ppm
# Text: Tetranychus urticae (Two-Spotted Spider Mite):
# Bean leaf discs on agar in 24-well microtiter plates were sprayed with test solutions at an application rate of 200 ppm. After drying, the leaf discs are infested with mite populations of mixed ages. 8 days later, discs are checked for egg mortality, larval mortality, and adult mortality.
# [1] = 200 ppm sprayed on cotton leaf discs, L1 larvae, mortality, feeding behavior, growth regulation 3 DAT
Structure (SMILES),pest or weed control at 200 ppm (Spodoptera littoralis; [1]),damage to the test organisms (Diabrotica balteata),damage to the test organisms (Plutella xylostella),damage to the test organisms (Heliothis virescens),damage to the test organisms (Thrips tabaci),damage to the test organisms (Tetranychus urticae),damage to the test organisms (Spodoptera littoralis),pest or weed control at 200 ppm (Spodoptera littoralis)
[H]/N=C(\NOCCC)c1ccc(C2=NOC(c3cc(Cl)cc(Cl)c3)(C(F)(F)F)C2)cc1C (centres unmarked) [Compound A27],≥ 80%,–,–,–,–,–,–,–
[H]/N=C(\NOCC)c1ccc(C2=NOC(c3cc(Cl)cc(Cl)c3)(C(F)(F)F)C2)cc1C (centres unmarked) [Compound A4],≥ 80%,–,–,–,–,–,–,–
COc1ccc(C(=O)CONC(=N)c2ccc(C3=NOC(c4cc(Cl)cc(Cl)c4)(C(F)(F)F)C3)cc2C)cc1 (centres unmarked) [Compound A28],–,little or no damage,little or no damage,little or no damage,little or no damage,little or no damage,little or no damage,–
[H]/N=C(\NOC)c1ccc(C2=NOC(c3cc(Cl)cc(Cl)c3)(C(F)(F)F)C2)cc1C (centres unmarked) [Compound A3],≥ 80%,–,–,–,–,–,–,–
Cc1cc(C2=NOC(c3cc(Cl)cc(Cl)c3)(C(F)(F)F)C2)ccc1C(=N)NOCc1sc(Cl)nc1C(F)(F)F (centres unmarked) [Compound A32],–,little or no damage,little or no damage,little or no damage,little or no damage,little or no damage,little or no damage,–
Cc1cc(C2=NOC(c3cc(Cl)cc(Cl)c3)(C(F)(F)F)C2)ccc1C(=N)NOC(C)C(=O)Nc1ccccc1 (centres unmarked) [Compound A24],–,little or no damage,little or no damage,little or no damage,little or no damage,little or no damage,little or no damage,–
[H]/N=C(\NOCC#CC)c1ccc(C2=NOC(c3cc(Cl)cc(Cl)c3)(C(F)(F)F)C2)cc1C (centres unmarked) [Compound A25],≥ 80%,–,–,–,–,–,–,–
"C#CCONC(=N)c1ccc(C2=NOC(c3cc(Cl)cc(Cl)c3)(C(F)(F)F)C2)cc1C (centres unmarked) [Compound A2, 4-[5-(3,5-dichloro-phenyl)-5-trifluoromethyl-4,5-dihydro-isoxazol-3-yl]-2-methyl-N-prop-2-ynyloxy-benzamidine]",–,–,–,–,–,–,–,≥ 80%
Cc1cc(C2=NOC(c3cc(Cl)cc(Cl)c3)(C(F)(F)F)C2)ccc1C(=N)NOCc1cc(Cl)cc2c1OCOC2 (centres unmarked) [Compound A19],–,little or no damage,little or no damage,little or no damage,little or no damage,little or no damage,little or no damage,–
[H]/N=C(\NOCC=C)c1ccc(C2=NOC(c3cc(Cl)cc(Cl)c3)(C(F)(F)F)C2)cc1C (centres unmarked) [Compound A5],≥ 80%,–,–,–,–,–,–,–
Cc1cc(C2=NOC(c3cc(Cl)cc(Cl)c3)(C(F)(F)F)C2)ccc1C(=N)NOCC1CCCCC1 (centres unmarked) [Compound A26],–,little or no damage,little or no damage,little or no damage,little or no damage,little or no damage,little or no damage,–
[H]/N=C(\NOCCCC)c1ccc(C2=NOC(c3cc(Cl)cc(Cl)c3)(C(F)(F)F)C2)cc1C (centres unmarked) [Compound A6],≥ 80%,–,–,–,–,–,–,–
Cc1cc(C2=NOC(c3cc(Cl)cc(Cl)c3)(C(F)(F)F)C2)ccc1C(=N)NOCC1CCCCO1 (centres unmarked) [Compound A14],–,little or no damage,little or no damage,little or no damage,little or no damage,little or no damage,little or no damage,–
CCOC(=O)c1ccc(CONC(=N)c2ccc(C3=NOC(c4cc(Cl)cc(Cl)c4)(C(F)(F)F)C3)cc2C)o1 (centres unmarked) [Compound A33],–,little or no damage,little or no damage,little or no damage,little or no damage,little or no damage,little or no damage,–
"Cc1cc(C2=NOC(c3cc(Cl)cc(Cl)c3)(C(F)(F)F)C2)ccc1/C(N)=N/O (centres unmarked) [Compound A1, 4-[5-(3,5-dichloro-phenyl)-5-trifluoromethyl-4,5-dihydro-isoxazol-3-yl]-N-hydroxy-2-methyl-benzamidine]",≥ 80%,–,–,–,–,–,–,–
CCOC(=O)/C=C/CONC(=N)c1ccc(C2=NOC(c3cc(Cl)cc(Cl)c3)(C(F)(F)F)C2)cc1C (centres unmarked) [Compound A13],–,little or no damage,little or no damage,little or no damage,little or no damage,little or no damage,little or no damage,–

# Reference: patent US8193221B2, “Insecticidal compounds” (Syngenta Crop Protection LLC, priority 2007, dated 2012)
